Experiments:
[1] = test system: HeLa cells; test: Cell death dose response (CellTox green, IncuCyte); type: cell-based; details: for EC50: Homo sapiens, area under % cell death vs time curve against log conc, read-out: Effect on cell death ⇒ EC50; for Effect on cell death: IncuCyte, 0-20 μM
Method: Toxicity of the compounds is assessed using Cell viability Counting Kit-8 (Dojindo) or in a Incucyte (Essenbioscience) using both phase contrast and IncuCyte™ Cytotox Green Reagent.
(§1) HeLa cells (40,000 cells/ml) were plated in a 96-well plate and treated with different concentrations (0-20 μM) of a compound as indicated in the presence of 250 ng/ml Tunicamycin for 72 hours. To monitor cell death 1/2000 dilution of the CellTox green dye (Promega) was added to the media. The growth of the cells was monitored over time and pictures taken every 2 hours with the IncuCyte ZOOM system and analysed by the IncuCyte ZOOM software (Essen BioScience). […] Cytoprotection against ER stress can be measured by a suitable assay. In this instance, cytoprotection was measured in HeLa cells in which ER stress was elicited by the addition of media containing tunicamycin, a drug that blocks N-glycosylation, thereby preventing protein folding and inducing the unfolded protein response. Cell viability was then detected in the presence and absence of a compound listed in Table 1 after a set period of time, by monitoring cell growth over time. Cytoprotection from ER stress was measured in terms of the percentage increase in viable cells (relative to control) after ER stress.
EC50 were extrapolated from dose response experiments on cell death. Data from IncuCyte was plotted and analysed in Prism. The “% of cell death” for each data point. For each concentration there is a % of cell death vs time, the area under the curve was taken and plotted against log conc=>EC50 (analysis in Prism).

[2] = molecular target: T1, PPP1R15B-PP1 (Homo sapiens, UniProt Q5SWA1); test: SPR steady-state binding to R15B-PP1 holophosphatase; details: SPR steady-state, MBP-R15B340-698-His captured on bio-PP1c, 10° C.; read-out: R15B (KD)
T1 construct: cDNAs encoding amino acids 325-636 of PPP1R15A and 340-698 of PPP1R15B were His-tagged and cloned into pMAL-c5x; made in house; host or cells: R15B: E. coli BL21-Gold (pMAL-c5x); PP1γ: Sf9 insect cells (baculovirus, pDW464)
Method: (§2) PPP1R15A^325-636 and PPP1R15B^340-698 were expressed and purified as follows: the cDNAs encoding amino acids 325-636 of PPP1R15A and 340-698 of PPP1R15B were His-tagged and cloned into pMAL-c5x. Recombinant PPP1R15A/B were expressed in BL21-Gold cells and purified by affinity chromatography on a HisTrap HP column (GE Healthcare), followed by a MBPTrap HP column (GE Healthcare). The proteins were analyzed on BOLT SDS-PAGE 4-12% Bis-Tris gels (Life Technologies) stained with SimplyBlue SafeStain (Life Technologies). cDNA encoding for human PP1γ was cloned into the baculovirus transfer vector pDW464 to add a biotin acceptor peptide (BAP). The vector also encodes for the E. coli biotin holoenzyme synthetase (BirA), so that BAP-tagged proteins can be biotinylated in vivo in Spodoptere frugiperda (Sf9) insect cells (Duffy et al., Anal. Biochem., 262, 122-128, 1998). The Bac-to-Bac baculovirus expression system (Life Technologies) was used to generate the recombinant bacmid DNA and Sf9 insect cells were used to amplify the viral stocks Cultures were harvested by centrifuging at 1,200 g for 15 minutes, cell pellets were resuspended in lysis buffer (50 mM Tris pH 7.4, 150 mM NaCl, 0.2% Triton, 5% Glycerol, 1 PiC tablet (Roche) per 50 ml and 0.2 mM PMSF) and followed by gentle sonication. The protein was first purified on a 5 ml HiTrap Q HP column (GE Healthcare) followed by a HiLoad 16/600 Superdex 200 column (GE Healthcare). The positive fractions confirmed by SDS-PAGE and western blot were pooled, concentrate to ˜1 μM and stored at −80° C.
(§3) A Biacore T200 (GE Healthcare) system was used for all experiments and biotinylated PP1 was captured using a Sensor Chip SA (GE Healthcare, catalog no BR-1005-31). The streptavidin coated surface was activated by 1 min injection with a solution of 50 mM NaOH and 1 M NaCl. Biotin-PP1 was diluted in the running buffer (50 mM Tris pH 7.5, 100 mM NaCl, 0.1 mM EGTA, 1 mM MnCl2, 0.05% Tween 20) and injected at approximately 300 nM concentration directly to streptavidin coated surface for 100 sec or to reach immobilization level of biotin-PP1 corresponding to ˜7000 RU. A blank immobilization was performed for one of the SA sensor chip surface to use as a reference.
(§4) With minor deviations, the same procedure and conditions were used in all binding experiments. Small molecules were stored as 50 mM stock solutions in 100% DMSO. Prior to determining binding constants, serial dilutions of either 12 or 8 concentrations of the compounds were prepared in the running buffer in a 96-well plate. Prior to each compound dilution series the regulatory subunit, R15A or R15B, was diluted to […] in the running buffer and captured on the biotin-PP1 surface, to form the holophosphatase complex on the sensor chip surface. Then, without regenerating the surface, the compound dilution series was injected onto the surface of the chip Sensorgrams were analyzed using the Biacore T200 evaluation software and the binding constants determined based on a steady-state model. Kinetic experiments are carried out using different concentrations of the compound and their respective equilibrium binding levels determined.
(§5) Surface Plasmon Resonance (SPR) was used to measure the binding affinity of compounds to the PPP1R15A/B-PP1 phosphatase complex. Biotin acceptor peptide (BAP) was fused to the N-terminus of PP1γ, which enables the biotinylation of the BAP-tagged protein in Sf9 insect cells. After purification the BAP-PP1γ protein was captured on a streptavidin sensor chip (SA-chip, GE healthcare) to a response level of ˜5.000 RU. Using controlled biotinylation enables orientated and uniform immobilization on the sensor chip surface. The PP1γ was then used to capture PPP1R15A/B and form a holophosphatase complex on the surface of the streptavidin chip. This complex can then be used to test binding of compounds. 10 μM PPP1R15A/B protein concentration was used to form the holophosphatase complex during a 80 s injection. […]

[3] = test system: HeLa cells; test: Cytoprotection against ER stress (tunicamycin), IncuCyte; type: cell-based; details: Homo sapiens, 250 ng/ml Tunicamycin, 72 hours, compound 0-20 μM, read-out: Cytoprotection from Tm (compared to GNB)
Method: as §1

[4] = molecular target: T2, PPP1R15A-PP1 complex (Homo sapiens, UniProt O75807); test: SPR steady-state binding to R15A-PP1 holophosphatase; details: SPR steady-state, MBP-R15A325-636-His captured on bio-PP1c, 10° C.; read-out: R15A (KD)
T2 construct: cDNAs encoding amino acids 325-636 of PPP1R15A and 340-698 of PPP1R15B were His-tagged and cloned into pMAL-c5x; made in house; host or cells: R15A: E. coli BL21-Gold (pMAL-c5x); PP1γ: Sf9 insect cells (baculovirus, pDW464)
Method: as §2, §3, §4, §5

T1 sequence (Q5SWA1 340-698): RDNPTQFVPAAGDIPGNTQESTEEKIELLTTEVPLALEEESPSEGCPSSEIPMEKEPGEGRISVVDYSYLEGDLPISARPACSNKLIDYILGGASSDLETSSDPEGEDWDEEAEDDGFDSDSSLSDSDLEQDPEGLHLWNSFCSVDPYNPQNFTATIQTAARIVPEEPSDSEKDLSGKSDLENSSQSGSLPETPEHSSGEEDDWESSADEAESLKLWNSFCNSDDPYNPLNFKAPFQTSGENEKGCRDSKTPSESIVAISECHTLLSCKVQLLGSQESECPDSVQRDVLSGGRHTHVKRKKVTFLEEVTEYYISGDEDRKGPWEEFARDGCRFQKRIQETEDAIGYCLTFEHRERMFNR
T1 sequence (P36873 whole entry partner, the tested form may be a part): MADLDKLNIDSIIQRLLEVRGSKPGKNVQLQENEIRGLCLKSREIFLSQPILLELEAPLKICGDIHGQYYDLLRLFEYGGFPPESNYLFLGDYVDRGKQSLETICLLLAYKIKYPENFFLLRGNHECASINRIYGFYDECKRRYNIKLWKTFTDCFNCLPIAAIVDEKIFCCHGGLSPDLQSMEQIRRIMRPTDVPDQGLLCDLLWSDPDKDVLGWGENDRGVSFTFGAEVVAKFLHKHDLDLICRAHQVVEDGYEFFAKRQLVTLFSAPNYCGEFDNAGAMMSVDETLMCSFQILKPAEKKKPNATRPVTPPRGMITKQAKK
T2 sequence (O75807 325-636): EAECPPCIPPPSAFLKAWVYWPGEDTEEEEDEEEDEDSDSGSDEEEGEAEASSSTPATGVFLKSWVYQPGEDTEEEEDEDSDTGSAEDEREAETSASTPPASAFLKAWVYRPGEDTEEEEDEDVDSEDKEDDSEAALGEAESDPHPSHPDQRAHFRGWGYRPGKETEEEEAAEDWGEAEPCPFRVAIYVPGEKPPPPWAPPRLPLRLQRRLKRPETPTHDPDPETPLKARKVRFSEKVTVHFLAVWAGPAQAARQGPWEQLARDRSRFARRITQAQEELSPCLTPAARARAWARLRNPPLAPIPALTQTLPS
T2 sequence (P36873 whole entry partner, the tested form may be a part): as the sequence (P36873 whole entry partner, the tested form may be a part) above

| Structure (SMILES) | EC50 [1] [µM] | Effect on cell death [1] | Kd [2] [µM] | Emax [3] [%] | Kd [4] [µM] |
| --- | --- | --- | --- | --- | --- |
| [H]/N=C(\N)NN=Cc1ccc(Cl)c(Cl)c1 [Compound 11, (E)-2-(3,4-dichlorobenzylidene)hydrazine-1-carboximidamide] | 12.7 | Yes | 13.4 ± 0.47 | 34 | 16.2 ± 2.1 |
| [H]/N=C(\N)NN=Cc1ccc(Cl)c(F)c1Cl [Compound 13, (E)-2-(2,4-dichloro-3-fluorobenzylidene)hydrazine-1-carboximidamide] | 15.5 | Yes | 6.68 ± 2.34 | 73 | 4.62 ± 0.59 |
| [H]/N=C(\N)NN=Cc1cc(Cl)c(F)c(Cl)c1 [Compound 5, (E)-2-(3,5-dichloro-4-fluorobenzylidene)hydrazine-1-carboximidamide] | 9.46 | Yes | 2.67 ± 0.4 | 48 | 8.45 ± 0.41 |
| [H]/N=C(\N)NN=Cc1cc(F)cc(F)c1Cl [Compound 29, (E)-2-(2-chloro-3,5-difluorobenzylidene)hydrazine-1-carboximidamide] |  | No | 4.06 | 62 | 7.87 ± 1.48 |
| [H]/N=C(\N)NN=Cc1cc(F)c(Cl)cc1Cl [Compound 7, (E)-2-(2,4-dichloro-5-fluorobenzylidene)hydrazine-1-carboximidamide] | 11.5 | Yes | 4.34 ± 2.35 | 46 | 10.2 ± 2.57 |
| [H]/N=C(\N)NN=Cc1cccc(Cl)c1F [Compound 30, (E)-2-(3-chloro-2-fluorobenzylidene)hydrazine-1-carboximidamide] |  | No | 12.3 ± 0.6 | 85 | 5.15 ± 1.7 |
